Laboratory results as given in patent publication US20120016019A1, “PHARMACEUTICAL COMPOSITION FOR TREATING OR PREVENTING CANCER” (priority 2010, published 2012).
Where “and” joins values, the source holds several entries; their conditions need not be identical. Identical values can stand only once. Entries after “also recorded” stand apart in the source; their conditions may differ. Like-named read-outs stand apart in the source and are kept apart here.

Columns and labels:
C-6 = assay: Cell counts, C-6; format: cell-based, rat
Description: (§4) Cancer cell lines HCC 1419, MCF-7, MDA-MB-468, SKBR3, PC3, HT1299, Saos-2, C-6, AsPc, MDA-MB-231, RKO, HeLa and TT, and normal cell lines HME 50 HT, BJ and CCD-1074sk were tested for changes in metabolism (XTT assay) and cell death (cell counts).
(§5) Cells were plated into 48-well Corning CellBind™ plates at densities of 20,000 cells for normal cells and 10,000˜20,000 cells for cancer cells. 24 to 48 h after plating, cells were treated with the composition according to the invention at concentrations of 4.5e-2M. The first time point treated with the composition of the invention is 0 h. At 3 days after the first treatment with the composition of the invention, medium was changed and the composition of the invention at the same concentrations were added to the cultured cells.
(§6) Cells were harvested using Trypsin-EDTA at the designated time points. When total cells for each well were counted with a Beckman-Coulter Z1 Particle Characterization Unit, the vertical axis represents 1/20 of cell number in the Figures attached to the specification, while when counted with a Beckman-Coulter Vi-Cell, the vertical axis represents cell number in the Figures. Two 48-well plates were used per cell line, and they were measured at 0 h, 12 h, 24 h, 48 h, 4 d and 7 d, respectively.
(§7) In the 1st plate, cells were treated with the composition according to the invention and medium was changed at 0 h and 3 d. […] As a result, LC-50 curves were generated in the 1st week.
C-6 is glioblastoma cells.

TT = assay: Viability by trypan blue staining, TT; format: cell-based; conditions: for viability (%) calculated from the cell counts: single value
Description: as §5, §6
(§8) The viability was determined by using the trypan blue staining in the well of cell counting.

MDA-MB-468 = assay: Cell counts, MDA-MB-468; format: cell-based; conditions: for cell counts: single wells
Description: as §4, §5
(§9) Cells were harvested using Trypsin-EDTA at the designated time points. […] Two 48-well plates were used per cell line, and they were measured at 0 h, 12 h, 24 h, 48 h, 4 d and 7 d, respectively.
as §7

CCD-1074sk [1] = assay: in vitro; format: cell-based; conditions: human, 220 nM
Description: as §5, §6, §8

BJ = format: cell-based; conditions: for cell counts, Mean value / cell counts: BJ; for cell counts: single count
Description: (§1) As a result, LC-50 curves were generated in the 1st week.
(§2) In the 2nd plate, 7 d of the 1st week (LC-50) is the same as 0 h of the 2nd week (recovery).
At 0 h of the 2nd week, medium was exchanged with untreated medium for the remainder of the experiment. The untreated controls were not measured in the 2nd week (recovery) due to overconfluence by the end of the 1st week. As a result, Recovery curves were generated in the 2nd week.
(15) BJ—Normal Fibroblasts BJ cells were derived from normal foreskin of a newborn, and have a long lifespan in comparison with other normal human fibroblast cells. Although they have the capacity to proliferate to a maximum of 72 population doublings before the onset of senescence, they are telomerase negative.

HT 1299 = assay: Cell counts, HT 1299; format: cell-based; conditions: for cell counts: single wells
Description: as §1, §2
(§3) At 0 h of the 2nd week, medium was exchanged with untreated medium for the remainder of the experiment. […] As a result, Recovery curves were generated in the 2nd week.
HT 1299 is a non-small cell lung cancer. The cells have a homozygous partial deletion of the p53 protein, and lack expression of p53 protein.

CCD-1074sk [2] = format: cell-based; conditions: for cell counts: single count
Description: as §1, §2, §3

AsPc = assay: Cell counts, AsPc; format: cell-based
Description: as §4, §5, §9, §7

Structure (SMILES): CC(=O)O[C@H]1C(=O)[C@@]2(C)[C@H]([C@H](OC(=O)c3ccccc3)[C@]3(O)C[C@H](OC(=O)[C@H](O)[C@@H](NC(=O)c4ccccc4)c4ccccc4)C(C)=C1C3(C)C)[C@]1(OC(C)=O)CO[C@@H]1C[C@@H]2O [Taxol]
- cell counts (C-6; 1st week (LC50), 0 h): 6111 and 7077 and 4897
- cell counts, Mean value (C-6; 1st week (LC50), 0 h): 6028
- cell counts (C-6; 1st week (LC50), 12 h): 3726 and 4240
- cell counts, Mean value (C-6; 1st week (LC50), 12 h): 4469
- cell counts (C-6; 1st week (LC50), 24 h): 3895 and 3853 and 3340
- cell counts, Mean value (C-6; 1st week (LC50), 24 h): 3696
- cell counts (C-6; 1st week (LC50), 48 h): 6630 and 6722
- cell counts, Mean value (C-6; 1st week (LC50), 48 h): 6243
- cell counts (C-6; 1st week (LC50), 4 d): 6026 and 6751 and 6905
- cell counts, Mean value (C-6; 1st week (LC50), 4 d): 6561
- cell counts, Mean value (C-6; 1st week (LC50), 7 d): 4450
- cell counts (C-6; 2nd week (recovery), 0 h): 2984 and 3948 and 4207
- cell counts, Mean value (C-6; 2nd week (recovery), 0 h): 3713
- cell counts (C-6; 2nd week (recovery), 24 h): 3392 and 4285 and 3984
- cell counts, Mean value (C-6; 2nd week (recovery), 24 h): 3887
- cell counts (C-6; 2nd week (recovery), 48 h): 3166 and 3930
- cell counts, Mean value (C-6; 2nd week (recovery), 48 h): 4184
- cell counts (C-6; 2nd week (recovery), 4 d): 4825 and 3184
- cell counts, Mean value (C-6; 2nd week (recovery), 4 d): 4031
- cell counts (C-6; 2nd week (recovery), 7 d): 3989 and 4316 and 3634
- cell counts, Mean value (C-6; 2nd week (recovery), 7 d): 3980
- response of the cells (C-6; composition: after 4 days of exposure): resistance to Taxol
- viability (%) (TT; 1st week (LC50), 0 h): 79.5% and 80.8% and 78.4%
- viability (%), Mean value (TT; 1st week (LC50), 0 h): 79.6%
- viability (%) (TT; 1st week (LC50), 24 h): 76.5% and 64.7% and 72.7%
- viability (%), Mean value (TT; 1st week (LC50), 24 h): 71.3%
- viability (%) (TT; 1st week (LC50), 48 h): 72.5% and 72% and 76.9%
- viability (%), Mean value (TT; 1st week (LC50), 48 h): 73.8%
- viability (%) (TT; 1st week (LC50), 4 d): 70.1%
- viability (%), Mean value (TT; 1st week (LC50), 4 d): 67.8%
- viability (%) (TT; 1st week (LC50), 7 d): 75% and 37.5%
- viability (%), Mean value (TT; 1st week (LC50), 7 d): 59.7%
- viability (%), Mean value (TT; 2nd week (recovery), 0 h, trypan blue, mean value): 65%
- viability (%) calculated from the cell counts (TT; 2nd week (recovery), 0 h, trypan blue): 70% and 75% and 50%
- viability (%), Mean value (TT; 2nd week (recovery), 24 h, trypan blue, mean value): 41.1%
- viability (%), Mean value (TT; 2nd week (recovery), 48 h, trypan blue, mean value): 35.1%
- viability (%), Mean value (TT; 2nd week (recovery), 4 d, trypan blue, mean value): 37.6%
- viability (%), Mean value (TT; 2nd week (recovery), 7 d, trypan blue, mean value): 33.5%
- viability (%) calculated from the cell counts (TT; 2nd week (recovery), 7 d, trypan blue): 25% and 42.3%
- cell counts (trend) (MDA-MB-468): increasing; also recorded: again recovering
- cell counts, Mean value (MDA-MB-468; 1st week (LC50), 0 h): 36000
- cell counts (MDA-MB-468; 1st week (LC50), 0 h): 32000 and 40000
- cell counts, Mean value (MDA-MB-468; 1st week (LC50), 24 h): 23333
- cell counts (MDA-MB-468; 1st week (LC50), 24 h): 24000 and 30000 and 16000
- cell counts, Mean value (MDA-MB-468; 1st week (LC50), 48 h): 13000
- cell counts (MDA-MB-468; 1st week (LC50), 48 h): 10000 and 12000 and 17000
- cell counts, Mean value (MDA-MB-468; 1st week (LC50), 4 d): 17667
- cell counts (MDA-MB-468; 1st week (LC50), 4 d): 15000 and 18000 and 20000
- cell counts, Mean value (MDA-MB-468; 1st week (LC50), 7 d): 9000
- cell counts, Mean value (MDA-MB-468; 2nd week (recovery), 0 h): 8333
- cell counts, Mean value (MDA-MB-468; 2nd week (recovery), 24 h): 3667
- cell counts (MDA-MB-468; 2nd week (recovery), 24 h): 4000 and 3000
- cell counts, Mean value (MDA-MB-468; 2nd week (recovery), 48 h): 8333
- cell counts, Mean value (MDA-MB-468; 2nd week (recovery), 4 d): 9333
- cell counts (MDA-MB-468; 2nd week (recovery), 4 d): 9000 and 10000
- cell counts, Mean value (MDA-MB-468; 2nd week (recovery), 7 d): 11667
- cell counts (MDA-MB-468; 2nd week (recovery), 7 d): 9000 and 11000 and 15000
- viability (%), Mean value (CCD-1074sk [1]; 0 h): 79%
- viability (%) calculated from the cell counts (CCD-1074sk [1]; 48 h): 83%
- viability (%) calculated from the cell counts (CCD-1074sk [1]; 4 d): 33%
- appearance of normal cells (microscopy) (BJ): fully destroyed
- proliferation of normal cells (BJ): decreased due to stress by toxicity of Taxol
- cell counts, Mean value (BJ; 1st week (LC50), 0 h): 16333
- cell counts (BJ; 1st week (LC50), 0 h): 14000 and 17000 and 18000
- cell counts, Mean value (BJ; 1st week (LC50), 12 h): 11000
- cell counts (BJ; 1st week (LC50), 12 h): 12000 and 9000
- cell counts, Mean value (BJ; 1st week (LC50), 24 h): 12667
- cell counts (BJ; 1st week (LC50), 24 h): 10000 and 17000 and 11000
- cell counts, Mean value (BJ; 1st week (LC50), 48 h): 11667
- cell counts (BJ; 1st week (LC50), 48 h): 14000 and 10000 and 11000
- cell counts, Mean value (BJ; 1st week (LC50), 4 d): 6333
- cell counts (BJ; 1st week (LC50), 4 d): 9000 and 5000
- cell counts, Mean value (BJ; 1st week (LC50), 7 d): 6667
- cell counts, Mean value (BJ; 2nd week (recovery), 0 h): 19
- cell counts, Mean value (BJ; 2nd week (recovery), 24 h): 8
- cell counts (BJ; 2nd week (recovery), 24 h): 7 and 9
- cell counts, Mean value (BJ; 2nd week (recovery), 48 h): 13
- cell counts (BJ; 2nd week (recovery), 48 h): 8 and 14 and 16
- cell counts, Mean value (BJ; 2nd week (recovery), 4 d): 11
- cell counts, Mean value (BJ; 2nd week (recovery), 7 d): 28
- cell counts (BJ; 2nd week (recovery), 7 d): 35 and 29 and 19
- process of cell death (microscopy) (HT 1299): cell membranes were ruptured by toxicity of Taxol, and then nuclei of cells changed into black
- cell counts, Mean value (HT 1299; 1st week (LC50), 0 h): 3737
- cell counts, Mean value (HT 1299; 1st week (LC50), 12 h): 3705
- cell counts (HT 1299; 1st week (LC50), 12 h): 2680 and 3085 and 5350
- cell counts, Mean value (HT 1299; 1st week (LC50), 24 h): 3252
- cell counts (HT 1299; 1st week (LC50), 24 h): 2810 and 4255 and 2690
- cell counts, Mean value (HT 1299; 1st week (LC50), 48 h): 1464
- cell counts (HT 1299; 1st week (LC50), 48 h): 1382 and 1526 and 1484
- cell counts (HT 1299; 1st week (LC50), 4 d): 488 and 536 and 712
- cell counts, Mean value (HT 1299; 1st week (LC50), 7 d): 782
- cell counts (HT 1299; 1st week (LC50), 7 d): 982 and 736
- cell counts, Mean value (HT 1299; 2nd week (recovery), 0 h): 919
- cell counts (HT 1299; 2nd week (recovery), 0 h): 1193 and 789 and 776
- cell counts, Mean value (HT 1299; 2nd week (recovery), 24 h): 227
- cell counts, Mean value (HT 1299; 2nd week (recovery), 48 h): 432
- cell counts (HT 1299; 2nd week (recovery), 48 h): 410 and 499 and 386
- cell counts, Mean value (HT 1299; 2nd week (recovery), 4 d): 446
- cell counts (HT 1299; 2nd week (recovery), 4 d): 322 and 545 and 470
- cell counts, Mean value (HT 1299; 2nd week (recovery), 7 d): 118
- cell counts (HT 1299; 2nd week (recovery), 7 d): 104 and 144 and 107
- cell counts, Mean value (CCD-1074sk [2]; 1st week (LC50), 0 h): 8000
- cell counts (CCD-1074sk [2]; 1st week (LC50), 0 h): 9000 and 7000
- cell counts, Mean value (CCD-1074sk [2]; 1st week (LC50), 24 h): 15500
- cell counts (CCD-1074sk [2]; 1st week (LC50), 24 h): 15000 and 16000
- cell counts, Mean value (CCD-1074sk [2]; 1st week (LC50), 48 h): 10500
- cell counts (CCD-1074sk [2]; 1st week (LC50), 48 h): 10000 and 11000
- cell counts, Mean value (CCD-1074sk [2]; 1st week (LC50), 4 d): 4500
- cell counts (CCD-1074sk [2]; 1st week (LC50), 4 d): 6000 and 3000
- cell counts, Mean value (CCD-1074sk [2]; 1st week (LC50), 7 d): 11500
- cell counts (CCD-1074sk [2]; 1st week (LC50), 7 d): 11000 and 12000
- cell counts, Mean value (CCD-1074sk [2]; 2nd week (recovery), 0 h): 10500
- cell counts (CCD-1074sk [2]; 2nd week (recovery), 0 h): 10000 and 11000
- cell counts, Mean value (CCD-1074sk [2]; 2nd week (recovery), 48 h): 8000
- cell counts (CCD-1074sk [2]; 2nd week (recovery), 48 h): 10000 and 6000
- cell counts, Mean value (CCD-1074sk [2]; 2nd week (recovery), 4 d): 5500
- cell counts (CCD-1074sk [2]; 2nd week (recovery), 4 d): 4000 and 7000
- cell counts (CCD-1074sk [2]; 2nd week (recovery), 7 d): 18000 and 9000
- process of cell death (microscopy) (AsPc): cell membranes were ruptured by toxicity of Taxol, and then nuclei of cells changed into black
- cell counts (AsPc; 1st week (LC50), 0 h): 2340 and 2039 and 2111
- cell counts, Mean value (AsPc; 1st week (LC50), 0 h): 2163
- cell counts (AsPc; 1st week (LC50), 12 h): 2833 and 2279 and 2550
- cell counts, Mean value (AsPc; 1st week (LC50), 12 h): 2554
- cell counts (AsPc; 1st week (LC50), 24 h): 2336 and 2161 and 2310
- cell counts, Mean value (AsPc; 1st week (LC50), 24 h): 2269
- cell counts (AsPc; 1st week (LC50), 48 h): 2810 and 2130 and 1800
- cell counts (AsPc; 1st week (LC50), 4 d): 2007 and 2100
- cell counts, Mean value (AsPc; 1st week (LC50), 4 d): 2042
- cell counts (AsPc; 1st week (LC50), 7 d): 2174 and 1902
- cell counts, Mean value (AsPc; 1st week (LC50), 7 d): 1823
- cell counts (AsPc; 2nd week (recovery), 0 h): 1213 and 1770
- cell counts (AsPc; 2nd week (recovery), 48 h): 1210 and 1202
- cell counts, Mean value (AsPc; 2nd week (recovery), 4 d): 631
- cell counts (AsPc; 2nd week (recovery), 7 d): 73 and 85
- cell counts, Mean value (AsPc; 2nd week (recovery), 7 d): 86
